Measured values as given in publication PMC3328629 (2012).

Columns and labels:
[1] = biological target: T1, S-adenosyl-L-homocysteine hydrolase (HsSAHH) (Homo sapiens, UniProt P23526); assay: biochemical
T1 sequence (P23526 2-432): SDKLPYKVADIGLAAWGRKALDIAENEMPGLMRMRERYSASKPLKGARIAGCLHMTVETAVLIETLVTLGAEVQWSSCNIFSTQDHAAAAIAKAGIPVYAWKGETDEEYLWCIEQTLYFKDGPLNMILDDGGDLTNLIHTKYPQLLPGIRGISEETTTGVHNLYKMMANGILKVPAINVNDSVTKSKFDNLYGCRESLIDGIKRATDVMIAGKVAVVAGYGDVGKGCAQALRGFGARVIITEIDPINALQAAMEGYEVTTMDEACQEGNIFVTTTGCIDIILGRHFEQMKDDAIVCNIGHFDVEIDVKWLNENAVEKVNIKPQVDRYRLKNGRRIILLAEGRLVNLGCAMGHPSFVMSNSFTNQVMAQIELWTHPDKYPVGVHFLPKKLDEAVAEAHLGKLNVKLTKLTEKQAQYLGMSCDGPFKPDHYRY

[2] = biological target: T1, S-adenosyl-L-homocysteine hydrolase (HsSAHH)
[3] = biological target: T1, S-adenosyl-L-homocysteine hydrolase (HsSAHH); assay: luciferase-coupled adenosine assay; format: biochemical
[4] = biological target: T1, S-adenosyl-L-homocysteine hydrolase (HsSAHH); assay: Michaelis-Menten kinetics; format: biochemical

## Nc1ncnc2c1ncn2C[C@@H](O)[C@@H](O)C(=O)O [D-eritadenine]
[1]
  Ki: 11.3 ± 0.6 nM

## Nc1ncnc2c1ncn2[C@@H]1C=C(CO)[C@@H](O)[C@H]1O [INH, neplanocin A]
[2]
  HPLC analysis of adenosine formation without coupling enzymes: Under these conditions (cf. Supplementary Methods, Supporting Information), INH totally inhibits SAHH.

## NC[C@H]1O[C@@H](n2cnc3c(N)ncnc32)[C@H](O)[C@@H]1O [INH-1, 5′-deoxy-5′-amino-β-D-adenosine]
[3]
  Ki: 2170 ± 80 nM

## Nc1ncnc2c1ncn2[C@@H]1O[C@H](CSCC[C@H](N)C(=O)O)[C@@H](O)[C@H]1O [SAH, S-adenosyl-L-homocysteine]
[4]
  Km: 22 ± 2 µM
